Like-named read-outs stand apart in the source and are kept apart here.
Experiments:
[1] = tested on: HRV1A strain 2060; test: Rhinovirus antiviral assay, inhibition of virus-induced cell killing (XTT) in H1-HeLa cells; format: cell-based; details: Enterovirus
[2] = tested on: SARS-CoV-2; test: microbe, parasite or virus in culture; format: cell-based
[3] = tested on: acute myeloid leukemia (AML); test: Clinical response of patients with AML to brequinar-containing composition; format: in vivo, human
[4] = tested on: RNA virus; test: Daily brequinar for five days in subject infected with an RNA virus (Example 19); format: in vivo; details: single daily dose for five consecutive days, first peak in brequinar level
Method: The mechanism by which administration of a DHODH inhibitor according to a daily dosing regimen inhibits viral replication is illustrated below. […] Throughout the course of the dosing regimen, levels of intracellular pyrimidines, such as uridine, and viral replication are measured.

[5] = in vivo
[6] = in vivo; remark: listed apart in the source
[7] = target: DHODH (Homo sapiens, UniProt Q02127); details: concentrations >1 μM
Sequence of DHODH (Homo sapiens, UniProt Q02127) (Q02127 whole entry): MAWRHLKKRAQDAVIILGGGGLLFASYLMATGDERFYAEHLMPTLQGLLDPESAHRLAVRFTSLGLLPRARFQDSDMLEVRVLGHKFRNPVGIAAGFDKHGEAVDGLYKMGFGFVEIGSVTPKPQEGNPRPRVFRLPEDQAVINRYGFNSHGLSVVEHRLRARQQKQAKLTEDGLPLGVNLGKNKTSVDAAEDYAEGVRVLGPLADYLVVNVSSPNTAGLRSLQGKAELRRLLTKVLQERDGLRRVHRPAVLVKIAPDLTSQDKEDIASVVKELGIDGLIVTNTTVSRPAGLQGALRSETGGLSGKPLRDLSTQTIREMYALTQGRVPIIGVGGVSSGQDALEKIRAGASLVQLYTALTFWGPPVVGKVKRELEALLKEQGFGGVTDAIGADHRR

[8] = tested on: DHODH
[9] = tested on: Dengue; details: A549 (human alveolar basal epithelial); cited from earlier work
[10] = tested on: Zika; details: Vero76 (monkey kidney); cited from earlier work
[11] = tested on: Ebola; details: HeLa (human cervical tumor); cited from earlier work
[12] = tested on: Yellow Fever; details: Vero (monkey kidney); cited from earlier work
[13] = tested on: VSV; details: HuH7 (human hepatocellular carcinoma); cited from earlier work
[14] = tested on: FMDV (O/MY98/BY/2010); details: cited from earlier work
[15] = tested on: FMDV (A/GD/MM/2013); details: cited from earlier work
[16] = tested on: solid tumor malignancies; details: 5-day period followed by 3-week gap, or once per week for three weeks followed by 1-week gap; cited from earlier work
[17] = tested on: AML; details: cited from earlier work
[18] = in vivo; details: rodents
[19] = in vitro; details: monkey, CC50, Vero E6
[20] = tested on: A549 (human alveolar basal epithelial); details: A549, Dengue row; cited from earlier work
[21] = tested on: Vero76 (monkey kidney); details: Vero76, Zika row; cited from earlier work
[22] = tested on: Respiratory Syncytial (RSV); details: A549 or HEp-2 (human epithelial); cited from earlier work
[23] = tested on: A549 or HEp-2 (human epithelial); details: A549 or HEp-2, RSV row; cited from earlier work
[24] = tested on: HIV1; details: HIV1, TZM-bl(human cervical tumor); cited from earlier work
[25] = tested on: TZM-bl(human cervical tumor); details: HIV1 row; cited from earlier work
[26] = tested on: Influenza A H1N1(California); details: MDCK (canine kidney); cited from earlier work
[27] = tested on: Influenza A H3N2; details: Influenza A H3N2, MDCK (canine kidney); cited from earlier work
[28] = tested on: Influenza B (Brisbane); details: MDCK (canine kidney); cited from earlier work
[29] = tested on: Influenza A H1N1(BIRFLU); details: MDCK (canine kidney); cited from earlier work
[30] = tested on: MDCK (canine kidney); details: H1N1(BIRFLU) row; cited from earlier work
[31] = tested on: Influenza A H1N1(BIRFLU); details: A549 (human alveolar basal epithelial); cited from earlier work
[32] = tested on: A549 (human alveolar basal epithelial); details: A549, H1N1(BIRFLU) row; cited from earlier work
[33] = tested on: Influenza A H1N1 (New Caledonia); details: 16HBE (human bronchial epithelial); cited from earlier work
[34] = tested on: 16HBE (human bronchial epithelial); details: H1N1 (New Caledonia) row; cited from earlier work
[35] = tested on: Vero (monkey kidney); details: cited from earlier work
[36] = tested on: HuH7 (human hepatocellular carcinoma); details: cited from earlier work
[37] = tested on: IBRS-2 (swine kidney); details: cited from earlier work
[38] = tested on: CMV; details: Primary Human Fibroblasts; cited from earlier work
[39] = tested on: Primary Human Fibroblasts; details: CMV row; cited from earlier work
[40] = tested on: CYP; test: CYP inhibition
[41] = Cytotoxicity in H1-HeLa cells (XTT); details: human, H1-HeLa cells (CRL-1958)
[42] = Adverse events in subjects receiving brequinar intravenously once a week; details: IV once a week, 209 subjects

Cc1c(-c2ccc(-c3ccccc3F)cc2)nc2ccc(F)cc2c1C(=O)O [brequinar, 6-fluoro-2-(2′-fluoro-1,1′ biphenyl-4-yl)-3-methyl-4-quinoline carboxylic acid]
EC50 [1]: 50 nM | E(Max) [2]: 88.2 | lowering of the EC50 of remdesivir by brequinar [2]: > 40 fold | EC90 ([2]; Severe acute respiratory syndrome coronavirus 2, Vero C1008): 345 nM | Emax ([2]; Severe acute respiratory syndrome coronavirus 2, Vero C1008, Vero E6, read-out: maximal inhibitory activity (Emax) compared to the no infection control): 88.2% | response ([3]; first patient (Example 12): reduction in bone marrow blast count, improved extramedullary hematopoiesis, more differentiated peripheral blasts): positive response | response ([3]; patient of Example 14: trend towards differentiation of peripheral blasts): positive response | response ([3]; second patient (Example 13): lowering of peripheral blasts, increase in absolute neutrophil count, greater differentiation): positive response | intracellular pyrimidine levels [4]: dramatic decrease in the intracellular pyrimidine pool | cumulative effect of repeated doses [5]: No cumulative effective of repeated doses | equivalence of oral and IV formulations [6]: oral and IV formulations are equivalent | DHODH inhibition [7]: almost completely inhibited | DHO plasma level threshold achieved ([8]; human, in vivo): 133 ng/mL | time to achieve DHO plasma level threshold ([8]; patient with AML of Example 14): less than 2 hours | EC50 [9]: 78 nM | EC50 [10]: 80 nM | EC50 [11]: 100 nM | EC50 [12]: 20 nM | EC50 [13]: 14 nM | EC50 [14]: 30000 nM | EC50 [15]: < 3000 nM | efficacy in solid tumor malignancies [16]: ineffective | toxicity ([17]; daily administration of high doses): weight loss, anemia, and thrombocytopenia | leukemia-initiating cell activity ([17]; only when elevated plasma levels are maintained for extended periods): decreases leukemia-initiating cell activity | Kp [18]: ~0.5 | CC50 at 3 days [19]: > 50000 nM | CC50 [20]: > 5000 nM | CC50 [21]: > 50000 nM | EC50 [22]: 53 nM | CC50 [23]: > 10000 nM | EC50 [24]: 40 nM | CC50 [25]: > 30000 nM | EC50 [26]: 780 nM | EC50 [27]: 620 nM | EC50 [28]: 250 nM | EC50 [29]: 580 nM | CC50 [30]: > 50000 nM | EC50 [31]: 140 nM | CC50 [32]: > 50000 nM | EC50 [33]: 140 nM | CC50 [34]: > 50000 nM | CC50 [35]: > 50000 nM | CC50 [36]: > 25000 nM | CC50 [37]: 100000 nM | EC50 [38]: 800 nM | CC50 [39]: > 50000 nM | CYP inhibition [40]: Does not inhibit CYP | CC50 at 3 days [41]: 300 nM | Infection: No. of Patients [42]: 7 | Infection: No. of Patients Experiencing the AE, Max Grade 1 [42]: 4 | Infection: No. of Patients Experiencing the AE, Max Grade 2 [42]: 3 | Infection: No. of Patients Experiencing the AE, Max Grade 3 [42]: 0 | Infection: No. of Patients Experiencing the AE, Max Grade 4 [42]: 0 | Infection: Percent [42]: 3.3%
